Experimental findings from ChEMBL document CHEMBL1201862, “PubChem BioAssay data set” (2004) are described below.

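Tested at 5 concentrations; 48 h exposure; 96-well plates; endpoints linearly interpolated, else capped at highest concentration. GI50 = concentration required for 50% inhibition of growth.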 Activity calls are given as the source filed them. Cut-off read from the data, not from the text of the source: active = GI50 up to about 1.1 µM and inactive = higher. Where a SMILES comes first, the peptide text is derived from it. Bridges are numbered along the chain shown (N, C = ends). [ ]: non-standard residue; d: D form. The star is where a group is joined. ξ: configuration not given here. X28 = O=C(/C=C/C=C/C=C/C=C/C=C/C(=O)*)NC1=C(O)CCC1=O; NMeA = CN[C@@H](C)C(=O)O; ξF = NC(Cc1ccccc1)C(=O)O; ξA = CC(N)C(=O)O Where only a bound is given, the exact number is not on record here.

Test systems include 786-0; ACHN; EKVX; HCC 2998; HCT-15; HOP-62; K562; MCF7; Malme-3M; NCI-H23; PC-3; SK-MEL-28; SK-MEL-2; SN12C; SNB-75; SR; TK-10; U-251; MOLT-4.
Common to all, as to test: DTP human tumour cell line panel, 48 h

On to `Cc1nc2ccccc2[nH]/c1=N/Nc1ccccc1`, for which the GI50 was 25.2 µM (inactive) with 786-0; 30.5 µM (inactive) in the test with ACHN; 4.17 µM (inactive) in the test with EKVX; 38.9 µM (inactive) with HCC 2998; 18.9 µM with HCT-15; 23.3 µM (inactive) in the test with HOP-62. Besides, the GI50 is 17.9 µM (inactive) in the test on K562; 12.3 µM (inactive) in the test with MCF7; 20.3 µM (inactive) with Malme-3M; 18.1 µM (inactive) with NCI-H23; 26.1 µM (inactive) with PC-3; 26.5 µM (inactive) with SK-MEL-28. The GI50 with SK-MEL-2 was 30.4 µM (inactive); with SN12C, 26.4 µM (inactive); in the test on SNB-75, 18.1 µM (inactive); in the test on SR, 19.3 µM (inactive); in the test with TK-10, > 100 µM (inactive); in the test with U-251, 48.3 µM (inactive).

`N#Cc1c(-c2ccccc2)c(/N=N/c2ccc(F)cc2)c(=O)n2c1[nH]c1ccccc12`: the GI50 in the test on 786-0 was 3.65 µM (inactive); with ACHN it was 5.64 µM (inactive); with EKVX it was 2.45 µM (inactive); in the test on HCC 2998 it was 6.24 µM (inactive); in the test with HCT-15, 3.33 µM; in the test with HOP-62, 6.15 µM (inactive). The GI50 in the test with K562 was 3.18 µM (inactive); in the test on MCF7, 4.51 µM (inactive); in the test with MOLT-4, 2.3 µM (inactive); with Malme-3M it was 7.6 µM (inactive); in the test with NCI-H23, 5.28 µM (inactive); with PC-3, 3.4 µM (inactive). Also, the GI50 with SK-MEL-28 is 8.39 µM (inactive); in the test on SK-MEL-2, 18.2 µM (inactive); with SN12C, 1.84 µM (inactive); in the test with SNB-75 it was 13.2 µM (inactive); in the test on SR it was 3.81 µM (inactive); with TK-10, 5.57 µM (inactive). Besides, the GI50 with U-251 was 3.66 µM (inactive).

For `NS(=O)(=O)c1ccc(NNC(=O)c2cccc3c(=O)c4ccccc4[nH]c23)cc1`, the GI50 in the test with 786-0 is > 100 µM (inactive); in the test with ACHN it was 91.6 µM (inactive); in the test on EKVX, 43.6 µM (inactive); with HCC 2998 it was > 100 µM (inactive); in the test on HCT-15, 62.8 µM; with HOP-62, > 100 µM (inactive). Also, the GI50 in the test on K562 was 41.7 µM (inactive); in the test on MCF7 it was 34 µM (inactive); in the test with MOLT-4, 42.2 µM (inactive); in the test on Malme-3M it was 78.3 µM (inactive); in the test on NCI-H23 it was > 100 µM (inactive); with PC-3, 65.6 µM (inactive). Moreover, the GI50 in the test with SK-MEL-28 is > 100 µM (inactive); in the test with SK-MEL-2, > 100 µM (inactive); in the test with SN12C it was > 100 µM (inactive); with SNB-75, > 100 µM (inactive); with SR, 49.8 µM (inactive); with TK-10 it was > 100 µM (inactive). In the test with U-251, the GI50 was 55.1 µM (inactive).

For the molecule `Clc1ccc(-c2c3nc(c(-c4ccc(Cl)cc4)c4ccc([nH]4)c(-c4ccc(Cl)cc4)c4nc(c(-c5ccc(Cl)cc5)c5ccc2[nH]5)C=C4)C=C3)cc1`, the GI50 with 786-0 is > 100 µM (inactive); in the test with ACHN it was > 100 µM (inactive); with EKVX, > 100 µM (inactive); in the test on HCC 2998, > 100 µM (inactive); in the test on HCT-15, above 100 µM; in the test with HOP-62 it was > 100 µM (inactive). Moreover, the GI50 in the test on K562 was > 100 µM (inactive); in the test on MCF7 it was > 100 µM (inactive); with MOLT-4 it was > 100 µM (inactive); with Malme-3M, 70.8 µM (inactive); in the test on NCI-H23, > 100 µM (inactive); in the test with PC-3, > 100 µM (inactive). The GI50 was > 100 µM (inactive) in the test with SK-MEL-28; > 100 µM (inactive) in the test on SK-MEL-2; > 100 µM (inactive) in the test on SN12C; 20.8 µM (inactive) in the test on SNB-75; > 100 µM (inactive) with SR; > 100 µM (inactive) in the test on TK-10. For the same molecule, the GI50 in the test on U-251 was > 100 µM (inactive).

As for `CCC(O)CC1OC2(CCC1C)CC1OC(=O)/C=C\C(C)(O)C(O)C(C)C(O)C(OC3CC(OC)C(O)C(C)O3)C(O)C(C)(O)CCC/C=C/C3CC(C)COC3(O)CC(O2)C1C` (stereo not drawn), the GI50 is 20.2 µM (inactive) with 786-0; 7.24 µM (inactive) with ACHN; < 0.01 µM (active) with EKVX; 15.7 µM (inactive) in the test with HCC 2998; 9.62 µM in the test with HCT-15; 2.93 µM (inactive) with HOP-62. Besides, the GI50 in the test with K562 is < 0.01 µM (active); in the test with MCF7 it was < 0.01 µM (active); with MOLT-4, 0.335 µM (active); in the test on Malme-3M, 10.7 µM (inactive); with NCI-H23 it was < 0.0176 µM (active); in the test on PC-3 it was < 0.0251 µM (active). The GI50 in the test with SK-MEL-28 was 13.8 µM (inactive); in the test on SK-MEL-2, 4.98 µM (inactive); in the test with SN12C it was 15.7 µM (inactive); in the test with SNB-75, 2.37 µM (inactive); in the test with SR, 19.9 µM (inactive); in the test with TK-10, 1.6 µM (inactive). For the same molecule, the GI50 in the test on U-251 was < 0.01 µM (active).

`COc1cc(-c2coc3c(OC)c(OC4OC(CO)C(O)C(O)C4O)c(OC)cc3c2=O)cc(OC)c1C` (stereo not drawn): the GI50 with 786-0 was 1.28 µM (inactive); in the test on ACHN, 7.55 µM (inactive); in the test with EKVX, 11.8 µM (inactive); in the test with HCC 2998 it was 3.89 µM (inactive); in the test with HCT-15, 3.66 µM; with HOP-62, 15.2 µM (inactive). In addition, the GI50 was 7.29 µM (inactive) in the test with K562; 3.66 µM (inactive) with MCF7; 5.9 µM (inactive) in the test with MOLT-4; 15.3 µM (inactive) in the test on Malme-3M; 3.98 µM (inactive) in the test with NCI-H23; 7.01 µM (inactive) with PC-3. In addition, the GI50 is 4.8 µM (inactive) in the test with SK-MEL-28; 16.1 µM (inactive) with SK-MEL-2; 4.07 µM (inactive) in the test on SN12C; 6.22 µM (inactive) in the test on SNB-75; 4.35 µM (inactive) with SR; 18.4 µM (inactive) in the test on TK-10. The GI50 in the test on U-251 was 3.7 µM (inactive).

For `O=C1NCC2(CCN(Cc3ccccc3)CC2)N1`, the GI50 in the test on 786-0 is > 100 µM (inactive); in the test with ACHN it was > 100 µM (inactive); in the test with EKVX it was > 100 µM (inactive); in the test on HCC 2998, > 100 µM (inactive); in the test on HCT-15, above 100 µM; with HOP-62, > 100 µM (inactive). Further, the GI50 in the test with K562, in the test with MCF7, with MOLT-4, in the test on Malme-3M, in the test on NCI-H23 and with PC-3 was > 100 µM (inactive) in each case. In addition, the GI50 in the test with SK-MEL-28, with SK-MEL-2, in the test on SN12C, in the test on SNB-75, in the test on SR and with TK-10 was > 100 µM (inactive) in each case. The GI50 with U-251 was > 100 µM (inactive).

Regarding `C=CC(c1ccccc1)[C@@]1(OC(C)=O)C(=O)C(=O)OC1C1COC(C)(C)O1` (stereo partly drawn), the GI50 was 10.4 µM (inactive) in the test on 786-0; 5.78 µM (inactive) in the test on ACHN; 17.9 µM (inactive) in the test with EKVX; 17.2 µM (inactive) in the test with HCC 2998; 9.62 µM with HCT-15; 17.3 µM (inactive) with HOP-62. In addition, the GI50 was 3.94 µM (inactive) in the test on K562; 5.68 µM (inactive) in the test on MCF7; 3.7 µM (inactive) with MOLT-4; 15.2 µM (inactive) in the test with Malme-3M; 18.2 µM (inactive) in the test with NCI-H23; 10.9 µM (inactive) with PC-3. The GI50 in the test on SK-MEL-28 is 8.32 µM (inactive); in the test on SK-MEL-2 it was 16.4 µM (inactive); in the test with SN12C, 7.66 µM (inactive); in the test on SNB-75, 14.5 µM (inactive); in the test with SR, 2.43 µM (inactive); with TK-10, 14.1 µM (inactive). Besides, the GI50 in the test with U-251 was 14.3 µM (inactive).

Take `C=C(C)C1CC(=O)C(C)=C(O)C1` (stereo not drawn): the GI50 with 786-0 is > 100 µM (inactive); in the test with ACHN, > 100 µM (inactive); in the test on EKVX it was > 100 µM (inactive); in the test with HCC 2998, > 100 µM (inactive); in the test on HCT-15, above 100 µM; with HOP-62, > 100 µM (inactive). Also, the GI50 with K562, with MCF7, in the test on MOLT-4, in the test with Malme-3M, in the test on NCI-H23 and in the test on PC-3 was > 100 µM (inactive) each time. Also, the GI50 in the test on SK-MEL-28, in the test with SK-MEL-2, with SN12C, with SNB-75, in the test on SR and in the test on TK-10 was > 100 µM (inactive) each time. Besides, in the test on U-251, the GI50 was > 100 µM (inactive).

With `CC1NC(=O)[C@H](C)N(C)C(=O)[C@@H]2CCCN2C(=O)[C@@H](NC(=O)C(Cc2ccccc2)NC(=O)/C=C/C=C/C=C/C=C/C=C/C(=O)NC2=C(O)CCC2=O)COC(=O)[C@@H]2CCCN2C1=O` (stereo partly drawn) (X28-[ξF]SP[NMeA][ξA]P; ester 2-C), the GI50 in the test on 786-0 was > 100 µM (inactive); in the test on ACHN, > 100 µM (inactive); in the test with EKVX, 96.4 µM (inactive); with HCC 2998, > 100 µM (inactive); with HCT-15, above 100 µM; in the test on HOP-62, 48.1 µM (inactive). Besides, the GI50 in the test on K562, in the test with MCF7, with Malme-3M, in the test with NCI-H23, in the test on PC-3 and with SK-MEL-28 was > 100 µM (inactive) throughout. Further, the GI50 in the test with SK-MEL-2 is > 100 µM (inactive); with SN12C it was > 100 µM (inactive); in the test with SNB-75, 64.3 µM (inactive); in the test on SR, 79.3 µM (inactive); in the test on TK-10, 30.3 µM (inactive); in the test on U-251 it was > 100 µM (inactive).
